Reference: patent US8445500B2, “Pesticidal compositions” (Dow AgroSciences, LLC., priority 2007, dated 2013)

Key:
Assay type in all cases: in vivo
[1] = tested on: Yellow Fever Mosquito Aedes aegypti; experiment: Insecticidal assay 4, yellow fever mosquito larvae, 96-well plate; settings: A. aegypti first instar larvae in water; 1.5 microliters of 4 micrograms per microliter in DMSO per well; assessed after 72 hours at 22° C.
From the text: 4. Insecticidal Assay for Yellow Fever Mosquito Aedes aegypti:
Objective: To evaluate the insecticidal activity of compounds against A. aegypti larvae through contact and ingestion.
(§1) Test unit preparation: Empty, 96-well microtiter plates are loaded onto a robotic dispensing system prior to application.
Formulation and application: Compounds are formulated in dimethyl sulfoxide at 4-micrograms per microliter. A robotic system dispenses 1.5 microliters of each formulated experimental solution into each well of an empty, 96-well microtiter plate. Each treatment is replicated 3 times.
Infesting: Subsequent to application, recently hatched, mosquito larvae are suspended in water containing 0.4% mosquito diet (1:3 mix of brewers yeast to liver powder). A robotic system dispenses aliquots of this aqueous solution containing 5-8 first instar mosquitoes into each well of the treated plates.
Holding and assessment: After infestation, the plates are covered with a matching clear plastic lid. Infested plates are stacked and held in an incubator at 22° C. for 72 hours. At assessment, cells are examined by means of a dissecting microscope for insecticidal effects.

[2] = tested on: Western Tarnished Plant Bug Lygus hesperus; experiment: Insecticidal assay 13, western tarnished plant bug, sprayed egg-infested snow pea pods; settings: L. hesperus eggs and emergent nymphs; airbrush spray on egg-infested snow pea pods; assessed after 10 days
Protocol: 13. Insecticidal Assay for Western Tarnished Plant Bug Lygus hesperus:
Objective: Assessment of the insecticidal activity of compounds against L. hesperus through egg contact and contact/ingestion activity on emergent nymphs.
Test Unit preparation: Female lygus are allowed to oviposit on snow pea pods, these pods are then placed in plastic Petri dishes.
Formulation and application: Compounds are dissolved in acetone and further dilutes with water containing 0.025% Tween 20. The solutions are sprayed on the Petri dishes and the egg-infested snow pea pods using an airbrush.
Holding and assessment: The Petri dishes are held for 10 days under controlled conditions at which time the emerging nymphs are assessed for insecticidal effects.

[3] = tested on: Tobacco Budworm Heliothis virescens; experiment: Insecticidal assay 2, tobacco budworm, 96-well diet plate; settings: H. virescens eggs and early instars; 2 microliters of 4 micrograms per microliter in DMSO per well on diet; 200 ppm piperonyl butoxide co-applied; assessed after 6 days at 29° C.
Protocol: 2. Insecticidal Assay for Tobacco Budworm Heliothis virescens:
Objective: To evaluate the insecticidal activity of compounds against H. virescens eggs and early instars through contact and ingestion.
Test unit preparation: A robotic system dispenses 150 microliters of freshly prepared artificial lepidopteran diet into each well of a 96-well microtiter plate. The plates are held overnight at 22° C. to allow proper cooling and drying prior to treatment and infestation.
Compound formulation and application: Compounds are formulated in dimethyl sulfoxide at 4-micrograms per microliter. A robotic system automatically dispenses 2 microliters of each of the compound solutions into individual wells of the prepared test units. Each treatment is replicated 6 times. As part of the application process, a 200 ppm concentration of the commonly used synergist, piperonyl butoxide is co-applied to each well to increase the sensitivity of this assay. After application, plates are allowed to dry 5-6 hours in a fume hood. When dry, the plates are covered with a matching lid and held overnight in a sealed container prior to infestation.
Infestation: One day after application, each treated well is infested with 3-5, tobacco budworm eggs.
Holding and assessment: Once infested, the plates are covered with a clear plastic lid. The plates are stacked and held in an incubator at 29° C. […]

[4] = tested on: Cotton Aphid Aphis gossypii; experiment: Insecticidal assay 14, cotton aphid, foliar spray on squash; settings: A. gossypii all life stages on squash; 50 and 5 parts per million spray solutions; assessed 3 days after treatment
Protocol: 14. Insecticidal Assay for Cotton Aphid Aphis gossypii:
Objective: To assess the insecticidal activity of compounds against A. gossypii through contact and ingestion.
(§2) Formulation and application: One (1) milligram of each technical synthetic organic compound was dissolved in 1 milliliters of a 90:10 acetone:ethanol solvent. This 1 milliliter of chemical solution was added to 19 milliliters of distilled water containing 0.05% Tween 20 surfactant to produce a 50 parts per million spray solution. A 5 part per million solution was then prepared from the 50 part per million stock.
Test unit preparation and infestation: One week old ‘Crookneck’ squash plants, trimmed to one cotyledon per plant, are infested with cotton aphids (all life stages). Sections of heavily infested colony squash leaves were placed on the untreated squash cotyledons 16-20 hrs prior to spraying. As the infested sections dried out, the aphids moved to the succulent plant material. Plants are examined to ensure even infestation prior to application.
(§3) Application: The plants are sprayed on both sides of all leaves with a hand-held atomizing sprayer until solutions are completely used. […]
Holding and assessment: The plants are allowed to air dry and are then held for 3 days in a controlled room at 26° C. and 40% relative humidity prior to grading. 3 days after treatment the aphids are assessed for insecticidal effects.

[5] = tested on: Cabbage Looper Tricoplusia ni; experiment: Insecticidal assay 9, cabbage looper, cabbage leaf disc dip; settings: T. ni second instar; cabbage leaf discs dipped in 400 ppm and 25 ppm solutions; assessed 5 days after infestation
Protocol: 9. Insecticidal Assay for Cabbage Looper Tricoplusia ni:
Objective: To assess the insecticidal activity of compounds against T. ni through contact and ingestion.
Formulation and application: Eight milligrams of technical compound is dissolved in 20 milliliters of 2:1 acetone:tap water diluent to form a 400 ppm solution. An aliquot of this solution is also used to prepare a 25 parts per million concentration. 3.5 centimeter diameter leaf discs cut from cabbage leaves are dipped into each solution until thoroughly wet. Each treatment is replicated 10 times. After air-drying, the treated discs are placed individually into one-ounce plastic cups.
Infestation: Once the leaf discs have dried, a single second instar cabbage looper is place on the cabbage disc in each cup.
Holding and assessment: Treated and infested cups or are capped and then held in a chamber at 25° C. and 50% relative humidity, 14-hours light:10-hours dark. 5 days after infestation the larvae are assessed for insecticidal effects.

[6] = tested on: Root-Knot Nematode Meloidogyne incognita; experiment: Insecticidal assay 5, root-knot nematode, 96-well plate with foxtail millet; settings: M. incognita eggs; 5 micrograms of compound per well; soil/polymer media with foxtail millet seeds; assessed after 7 days at 27° C.
From the text: 5. Insecticidal Assay for Root-Knot Nematode Meloidogyne incognita:
Objective: To evaluate the insecticidal activity of compounds against M. incognita through contact and ingestion.
as §1
Formulation and application: A robotic system dispenses 25 microliters of ethanol and 5 micrograms of compound, diluted in dimethyl sulfoxide, into each well of a 96-well flat-bottomed, microtiter plate. There are 3 replicates per treatment. The plates are held 24 hours to allow proper drying prior to further preparation and infestation.
Additional test unit preparation and infestation: After drying, 16 milligrams of media consisting of 2 parts fine soil and 1 part absorbent polymer is added to each well of the treated 96-well plates. Once the media is in place, a 200 microliter aqueous suspension of rootknot nematode eggs is added to each well forming a gelatinous substrate. Into each of these wells are distributed 10 foxtail millet Seteria italica seeds. Following this “planting” an identical plate is sealed to the top of the treated plate to allow space for the millet to grow.
Holding and assessment: Once the lids are in place, the plates are held at 27° C. and 75% relative humidity under bright indirect lights. […]

[7] = tested on: Beet Armyworm Spodoptera exigua; experiment: Insecticidal assay 10, beet armyworm, 128 well bioassay trays; settings: S. exigua second instar; 50 microliters of 1 milligram per milliliter stock or serial dilutions on diet per well; assessed 5 days after infestation
Protocol: 10. Insecticidal Assay for Beet Armyworm Spodoptera exigua:
Objective: To assess the insecticidal activity of compounds against S. exigua through contact and ingestion.
(§4) Test unit preparation: 128 well bioassay trays are prepared by injecting each well with approximately 1 milliliter of prepared lepidopteran diet. Trays are allowed to dry prior to use.
(§5) Compound formulation and application: A 1 milligram per milliliter, stock solution is prepared for each compound by adding 2 milliliters of acetone/water diluent (9:1) to a vial containing 2 milligrams of technical compound. From this stock solution, additional doses may be produced through serial dilution. Once the appropriate concentrations have been prepared, 50 microliters of each solution is applied to the surface of the diet in each of 8 wells. Upon completing application, the trays are allowed to dry.
Infestation: Once dry, each well is infested with a single second instar beet armyworm. The infested wells are sealed with self sticking, ventilated plastic covers.
(§6) Holding and assessment: After infestation and sealing, the trays are placed in a growth chamber at 25 C and 40% relative humidity. 5 days after infestation the larvae are assessed for insecticidal effects.

[8] = tested on: Green Peach Aphid Myzus persicae; experiment: Insecticidal assay 15, green peach aphid, foliar spray on cabbage seedlings; settings: M. persicae on cabbage seedlings; 50 and 5 parts per million spray solutions; assessed 3 days after treatment
Protocol: 15. Insecticidal Assay for Green Peach Aphid Myzus persicae:
Objective: To assess the insecticidal activity of compounds against M. persicae through contact and ingestion.
as §2
Test unit preparation and infestation: Cabbage seedlings, with 2 to 3 first true leaves emerged (12 days after planting) are culled to 1 plant per 3 inch pot. Treatments consisted of 4 replicates. Four days prior to application, heavily infested colony turnip leaves are shaken above the untreated plants. Shaking dislodges the aphids and they migrate to succulent plant material. Plants are examined to ensure even infestation prior to application.
as §3
Holding and assessment: The plants are allowed to air dry and are then held for 3 days in a controlled room at 26° C. and 40% relative humidity. 3 days after treatment the aphids are assessed for insecticidal effects.

[9] = tested on: Beet Armyworm Spodoptera exigua; experiment: Insecticidal assay 7, beet armyworm, diet cups; settings: S. exigua second instar; 250 microliters of 400 ppm and 25 ppm solutions on diet in cups; assessed 5 days after infestation
Protocol: 7. Insecticidal Assay for Beet Armyworm Spodoptera exigua:
Objective: To assess the insecticidal activity of compounds against S. exigua, through contact and ingestion.
(§7) Test unit preparation: 8 milliliters of lepidopteran diet is dispensed into one ounce clear plastic portion cups. The diet is allowed to cool before storage or use.
(§8) Formulation and application: Eight milligrams of technical compound is dissolved in 20 milliliters of 2:1 acetone:tap water diluent to form a 400 ppm solution. An aliquot of this solution is also used to prepare a 25 parts per million concentration. 250 microliters of each solution is then pipetted onto the surface the diet in each cup. Each treatment is replicated 10 times.
Infestation: Once the treated cups have dried, a single second-instar beet armyworm is placed on the treated diet in each cup.
(§9) Holding and assessment: Treated and infested diet cups or are capped and then held in a chamber at 25° C. and 50% relative humidity. 14-hours light:10-hours dark. 5 days after infestation the larvae are assessed for insecticidal effects.

[10] = tested on: German Cockroach Blattella germanica; experiment: Insecticidal assay 12, German cockroach, 96-well diet plate; settings: B. germanica second instar; 2 microliters of 4-microgram/microliter in DMSO per well on diet; assessed after 6 and 13 days at 29° C.
Protocol: 12. Insecticidal Assay for German Cockroach Blattella germanica: Objective: Assessment of the insecticidal activity of compounds against B. germanica through contact and ingestion. Test unit preparation: A robotic system dispenses 100 microliters of freshly prepared artificial diet into each well of a 96-well microtiter plate. The plates are held overnight at 22° C. to allow proper cooling and drying prior to treatment and infestation. Compound formulation and application: Compounds are formulated in dimethyl sulfoxide at 4-microgram/microliter. A robotic system automatically dispenses 2 microliters of each compound solution into individual wells of the prepared test units. Each treatment is replicated 3 times. After application, plates are allowed to dry 5-6 hours in a fume hood. When dry, the plates are covered with a matching lid and held overnight in a sealed container prior to infestation. Infestation: One day after application, each treated well is infested with 3-5, second instar cockroaches. Holding and assessment: Once infested, the plates are covered with a clear plastic lid. The plates are stacked and held in an incubator at 29° C. After 6 and 13 days respectively, each well is examined by means of a dissecting microscope for insecticidal effects.

[11] = tested on: Tobacco Budworm Heliothis virescens; experiment: Insecticidal assay 8, tobacco budworm, diet cups; settings: H. virescens second instar; 250 microliters of 400 ppm and 25 ppm solutions on diet in cups; assessed 5 days after infestation
Protocol: 8. Insecticidal Assay for Tobacco Budworm Heliothis virescens:
Objective: To assess the insecticidal activity of compounds against H. virescens through contact and ingestion.
as §7, §8
Infestation: Once the treated cups have dried, a single second-instar tobacco budworm is placed on the treated diet in each cup.
as §9

[12] = tested on: Corn Earworm Helicoverpa zea; experiment: Insecticidal assay 11, corn earworm, 128 well bioassay trays; settings: H. zea second instar; 50 microliters of 1 milligram per milliliter stock or serial dilutions on diet per well; assessed 5 days after infestation
Protocol: 11. Insecticidal Assay for Corn Earworm Helicoverpa zea:
Objective: To assess the insecticidal activity of compounds against H. zea, through contact and ingestion.
as §4, §5
Infestation: Once dry, each well is infested with a single second instar corn earworm. Infested wells are sealed with self sticking, ventilated plastic covers.
as §6

[13] = tested on: Large Milkweed Bug Oncopeltus fasciatus; experiment: Insecticidal assay 6, large milkweed bug, 96-well diet plate; settings: O. fasciatus second instar; 2 microliters of 4-microgram/microliter in DMSO per well on diet; assessed after 6 days at 29° C.
Protocol: 6. Insecticidal Assay for Large Milkweed Bug Oncopeltus fasciatus:
Objective: To assess the insecticidal activity of compounds against O. fasciatus through contact and ingestion.
Test unit preparation: A robotic system dispenses 100 microliters of freshly prepared artificial diet into each well of a 96-well microtiter plate. The plates are held overnight at 22° C. to allow proper cooling and drying prior to treatment and infestation.
Compound formulation and application: Compounds are formulated in dimethyl sulfoxide at 4-microgram/microliter. A robotic system automatically dispenses 2 microliters of each of the experimental compound solutions into individual wells of the prepared test units. There are 6 replicates per treatment. After application, plates are allowed to dry 5-6 hours in a fume hood. When dry, the plates are covered with a matching lid and held overnight in a sealed container prior to infestation.
Infestation: One day after application, each treated well is infested with 3-5 second instar milkweed bugs.
Holding and assessment: Once infested, the plates are covered with a clear plastic lid. The plates are then stacked and held in an incubator at 29° C. After 6 days, each well is examined by means of a dissecting microscope for insecticidal effect.

Measured: insecticidal activity

CN(Nc1nc(C(F)(F)F)nc(C(F)(F)F)c1C#N)c1ccc(C#N)cn1 [Compound 30]
significant insecticidal activity: [1]

N#Cc1c(NNc2c(Cl)cc(C(F)(F)F)cc2Cl)nc(C(F)(F)F)nc1C(F)(F)F [Compound 11, 4-[N′-(2,6-dichloro-4-trifluoromethyl-phenyl)-hydrazino]-2,6-bis-trifluoromethyl-pyrimidine-5-carbonitrile]
significant insecticidal activity: all assays above
